These results are taken from patent publication US9833497B2, “Human originated EGF domain proteins and use of the same” (CHENGDU SOURCEBIO LIMITED-LIABILITY COMPANY, priority 2013, dated 2017).

Common to all, as to format: cell-based
The subject of one assay is E. coli DH5α. Nature of the assay: Antibacterial activity: MIC and growth curve against E. coli DH5α in 96-well plate. Particulars: minimal inhibitory concentration against E. coli DH5α; 96-well plate, 5×10^5 CFU/mL, 37° C., judged after 8 h. A digest of the protocol: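 MIC taken as lowest protein level with no bacterial growth, tracked by A600 every 30 min during 37 °C, 175 rpm culture. Two-fold protein series 50-12.5 μg/mL final, triplicate wells, against 5×10^5 CFU/mL of LB-washed mid-log cells.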

A further assay deals with Klebsiella pneumonia. The assay is described as follows: MIC against Gram-negative bacteria: Klebsiella pneumonia. The method, boiled down:
(§1)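 LB broth cultures at McFarland 0.5, spun down, resuspended, diluted to 5×10^5 CFU/mL final. Two-fold serial dilutions of purified human EGF domain proteins, triplicate. 37° C, 175 rpm shaking. Endpoint: no visible growth.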

The test system of another assay is Citrobacter diversus. The assay is described as follows: MIC against Gram-negative bacteria: Citrobacter diversus. A digest of the protocol: as §1
The subject of the next assay is Proteus mirabilis. The assay is described as follows: MIC against Gram-negative bacteria: Proteus mirabilis. A digest of the protocol:
as §1

The next assay deals with Moraxella catarrhalis. Nature of the assay: MIC against Gram-negative bacteria: Moraxella catarrhalis. The method, boiled down: as §1
In another assay the test system is Pseudomonas aeruginosa. The assay is described as follows: MIC against Gram-negative bacteria: Pseudomonas aeruginosa. The method, boiled down: as §1
Another assay deals with Aeromonas hydrophila. The assay is described as follows: MIC against Gram-negative bacteria: Aeromonas hydrophila. The method, boiled down: as §1
Another assay deals with Proteus vulgaris. The assay is described as follows: MIC against Gram-negative bacteria: Proteus vulgaris. The method, boiled down:
as §1

The test system of a further assay is Serratia marcescens. Nature of the assay: MIC against Gram-negative bacteria: Serratia marcescens. A digest of the protocol: as §1
The next assay has as its system E. coli BL21. Nature of the assay: MIC against Gram-negative bacteria: E. coli BL21. A digest of the protocol:
as §1

In the next assay the test system is Enterobacter cloacae. The assay is described as follows: MIC against Gram-negative bacteria: Enterobacter cloacae. The method, boiled down:
as §1

The mark [1] stands for this setting: 96-well plate, 5×10^5 CFU/mL, 37° C., 10 h.

Substance “PRT1290 (KCNPCLSNPCKNDGTCNSDPVDFYRCTCPYGFKGQDCD; listed as Homo sapiens)” displayed an MIC against E. coli DH5α of 50 µg/mL. Further, in the assay with Klebsiella pneumonia (Klebsiella pneumonia, 96-well plate, 5×10^5 CFU/mL, 37° C., 10 h), the “MIC against K. pneumonia” value came to 12.5 µg/mL. In addition, the “MIC against C. diversus” value against Citrobacter diversus (Citrobacter diversus, 96-well plate, 5×10^5 CFU/mL, 37° C., 10 h) was found to be 12.5 µg/mL. Moreover, in the assay with Proteus mirabilis (Proteus mirabilis, 96-well plate, 5×10^5 CFU/mL, 37° C., 10 h), the “MIC against P. mirabilis” value amounted to 50 µg/mL. Also, the “MIC against M. catarrhalis” value against Moraxella catarrhalis (Moraxella catarrhalis, 96-well plate, 5×10^5 CFU/mL, 37° C., 10 h) is 25 µg/mL. For the same substance, the “MIC against P. aeruginosa” value in the assay with Pseudomonas aeruginosa (Pseudomonas aeruginosa, 96-well plate, 5×10^5 CFU/mL, 37° C., 10 h) was determined as 50 µg/mL. For the same substance, the “MIC against A. hydrophila” value against Aeromonas hydrophila (Aeromonas hydrophila, 96-well plate, 5×10^5 CFU/mL, 37° C., 10 h) amounted to 25 µg/mL. In the assay with Proteus vulgaris (Proteus vulgaris, 96-well plate, 5×10^5 CFU/mL, 37° C., 10 h), the “MIC against P. vulgaris” value came to 12.5 µg/mL. In addition, the “MIC against S. marcescens” value with Serratia marcescens (Serratia marcescens, 96-well plate, 5×10^5 CFU/mL, 37° C., 10 h) is 12.5 µg/mL. For the same substance, the “MIC against E. coli BL21” value against E. coli BL21 (E. coli BL21, 96-well plate, 5×10^5 CFU/mL, 37° C., 10 h) is 12.5 µg/mL. Also, the “MIC against E. cloacae” value against Enterobacter cloacae (Enterobacter cloacae, 96-well plate, 5×10^5 CFU/mL, 37° C., 10 h) worked out at 50 µg/mL.

For “PRT1036 (VEDKCEKACRPEEECLALNSTWGCFCRQDLNSSDVHSLQPQLDCG; listed as Homo sapiens)”, the MIC against E. coli DH5α is 25 µg/mL; against Klebsiella pneumonia (K. pneumonia, 10 h cultivation at 37° C.), 25 µg/mL; with Citrobacter diversus (C. diversus, 10 h cultivation at 37° C.) it was 50 µg/mL; against Proteus mirabilis (P. mirabilis, 10 h cultivation at 37° C.) it was 50 µg/mL; in the assay with Moraxella catarrhalis (M. catarrhalis, 10 h cultivation at 37° C.), 12.5 µg/mL; against Pseudomonas aeruginosa (P. aeruginosa, 10 h cultivation at 37° C.), 25 µg/mL. In addition, the MIC against Aeromonas hydrophila (A. hydrophila, 10 h cultivation at 37° C.) amounted to 12.5 µg/mL; in the assay on Proteus vulgaris (P. vulgaris, 10 h cultivation at 37° C.), 50 µg/mL; against Serratia marcescens (S. marcescens, 10 h cultivation at 37° C.), 50 µg/mL; in the assay on E. coli BL21 (E. coli BL21, 10 h cultivation at 37° C.) it was 50 µg/mL; against Enterobacter cloacae (E. cloacae, 10 h cultivation at 37° C.), 50 µg/mL.

“PRT683 (DIDECSQDPSLCLPHGACKNLQGSYVCVCDEGFTPTQDQHGCE; listed as Homo sapiens)” returned an MIC with E. coli DH5α of 12.5 µg/mL. For the same substance, the “MIC K. pneumonia” value against Klebsiella pneumonia (setting [1]) worked out at 25 µg/mL. Besides, in the assay with Citrobacter diversus (setting [1]), the “MIC C. diversus” value was 25 µg/mL. Further, the “MIC P. mirabilis” value with Proteus mirabilis (setting [1]) came to 12.5 µg/mL. Also, the “MIC M. catarrhalis” value in the assay with Moraxella catarrhalis (setting [1]) worked out at 25 µg/mL. Also, in the assay on Pseudomonas aeruginosa (setting [1]), the “MIC P. aeruginosa” value stood at 50 µg/mL. Besides, the “MIC A. hydrophila” value in the assay with Aeromonas hydrophila (setting [1]) was 50 µg/mL. Also, the “MIC P. vulgaris” value in the assay with Proteus vulgaris (setting [1]) worked out at 50 µg/mL. For the same substance, the “MIC S. marcescens” value against Serratia marcescens (setting [1]) stood at 25 µg/mL. For the same substance, in the assay with E. coli BL21 (setting [1]), the “MIC E. coli BL21” value was 25 µg/mL. Besides, the “MIC E. cloacae” value in the assay with Enterobacter cloacae (setting [1]) was determined as 12.5 µg/mL.

With “PRT649 (DVDECLEPNVCANGDCSNLEGSYMCSCHKGYTRTPDHKHCR; listed as Homo sapiens)”, the MIC with E. coli DH5α was determined as 50 µg/mL. In addition, in the assay with Klebsiella pneumonia (setting [1]), the “MIC K. pneumonia” value amounted to 12.5 µg/mL. The “MIC C. diversus” value in the assay on Citrobacter diversus (setting [1]) was 50 µg/mL. In addition, in the assay with Proteus mirabilis (setting [1]), the “MIC P. mirabilis” value stood at 25 µg/mL. The “MIC M. catarrhalis” value with Moraxella catarrhalis (setting [1]) was 12.5 µg/mL. Also, the “MIC P. aeruginosa” value with Pseudomonas aeruginosa (setting [1]) is 50 µg/mL. Further, the “MIC A. hydrophila” value with Aeromonas hydrophila (setting [1]) was determined as 12.5 µg/mL. The “MIC P. vulgaris” value against Proteus vulgaris (setting [1]) is 50 µg/mL. Also, the “MIC S. marcescens” value with Serratia marcescens (setting [1]) is 25 µg/mL. In addition, the “MIC E. coli BL21” value against E. coli BL21 (setting [1]) amounted to 12.5 µg/mL. Further, in the assay on Enterobacter cloacae (setting [1]), the “MIC E. cloacae” value was 50 µg/mL.

In the assay on E. coli DH5α, “PRT782 (AERCDCSHADGCHPTTGHCRCLPGWSGVHCD; listed as Homo sapiens)” registered an MIC of 50 µg/mL. Moreover, the “MIC (μg/mL) K. pneumonia” value against Klebsiella pneumonia (K. pneumonia, 10 h cultivation at 37° C., 5×10^5 CFU/mL) is 12.5 µg/mL. For the same substance, the “MIC (μg/mL) C. diversus” value against Citrobacter diversus (C. diversus, 10 h cultivation at 37° C., 5×10^5 CFU/mL) stood at 12.5 µg/mL. Also, the “MIC (μg/mL) P. mirabilis” value in the assay with Proteus mirabilis (P. mirabilis, 10 h cultivation at 37° C., 5×10^5 CFU/mL) came to 25 µg/mL. Further, the “MIC (μg/mL) M. catarrhalis” value in the assay with Moraxella catarrhalis (M. catarrhalis, 10 h cultivation at 37° C., 5×10^5 CFU/mL) is 12.5 µg/mL. For the same substance, the “MIC (μg/mL) P. aeruginosa” value against Pseudomonas aeruginosa (P. aeruginosa, 10 h cultivation at 37° C., 5×10^5 CFU/mL) is 12.5 µg/mL. Further, in the assay with Aeromonas hydrophila (A. hydrophila, 10 h cultivation at 37° C., 5×10^5 CFU/mL), the “MIC (μg/mL) A. hydrophila” value worked out at 12.5 µg/mL. The “MIC (μg/mL) P. vulgaris” value in the assay on Proteus vulgaris (P. vulgaris, 10 h cultivation at 37° C., 5×10^5 CFU/mL) stood at 12.5 µg/mL. In addition, the “MIC (μg/mL) S. marcescens” value in the assay on Serratia marcescens (S. marcescens, 10 h cultivation at 37° C., 5×10^5 CFU/mL) is 50 µg/mL. In addition, the “MIC (μg/mL) E. coli BL21” value with E. coli BL21 (E. coli BL21, 10 h cultivation at 37° C., 5×10^5 CFU/mL) turned out to be 25 µg/mL. Besides, the “MIC (μg/mL) E. cloacae” value in the assay on Enterobacter cloacae (E. cloacae, 10 h cultivation at 37° C., 5×10^5 CFU/mL) stood at 12.5 µg/mL.
